Patent US20190010139A1 (priority 2015, published 2019)

What follows are molecules tested on NL-RLuc virus (assay: Inhibition of HIV replication (NL-RLuc luciferase reporter virus in MT-2 cells)). Details: Human immunodeficiency virus 1, MT2, 120 h, read-out: Activity.
Format: cell-based
Description: Inhibition of HIV Replication:
A recombinant NL-RLuc proviral clone was constructed in which a section of the nef gene from NL4-3 was replaced with the Renilla Luciferase gene. This virus is fully infectious and can undergo multiple cycles of replication in cell culture. In addition, the luciferous reporter provides a simple and easy method for quantitating the extent of virus growth and consequently, the antiviral activity of test compounds. The plasmid pNLRLuc contains the proviral NL-Rluc DNA cloned into pUC 18 at the PvuII site. The NL-RLuc virus was prepared by transfection of 293T cells with the plasmid pNLRLuc. Transfections were performed using the LipofectAMINE PLUS kit from Invitrogen (Carlsbad, Calif.) according to the manufacturer and the virus generated was titered in MT-2 cells. For susceptibility analyses, the titrated virus was used to infect MT-2 cells in the presence of compound, and after 5 days of incubation, cells were processed and quantitated for virus growth by the amount of expressed luciferase. Assay media was RPMI 1640 supplemented with 10% heat inactivated fetal bovine serum (FBS), 100 units/ml penicillin G/100 units/ml streptomycin, 10 mM HEPES buffer pH 7.55 and 2 mM L-glutamine. The results from at least 2 experiments were used to calculate the EC50 values. Luciferase was quantitated using the Dual Luciferase kit from Promega (Madison, Wis.). Susceptibility of viruses to compounds was determined by incubation in the presence of serial dilutions of the compound. The 50% effective concentration (EC50) was calculated by using the exponential form of the median effect equation where (Fa)=1/[1+(ED50/drug conc.)^m](Johnson V A, Byington R T. Infectivity Assay. In Techniques in HIV Research. ed. Aldovini A, Walker B D. 71-76. New York: Stockton Press.1990). Activity equal to A refers to a compound having an EC50≤100 nM, while B and C denote compounds having an EC50 between 100 nM and 1 uM (B) or >1 uM (C).

Row | Compound | EC50
1 | Cc1nc(C)c([C@H](OC(C)(C)C)C(=O)O)c(N2CC[C@H]3CCCC[C@@H]3C2)c1-c1ccc(C(=O)NCc2ccccc2)cc1 [Example 13, (S)-2-(5-(4-(Benzylcarbamoyl)phenyl)-2,6-dimethyl-4-((4aR,8aS)-octahydroisoquinolin-2(1H)-yl)pyridin-3-yl)-2-(tert-butoxy)acetic acid] | < 0.1 µM
2 | Cc1nc(C)c([C@H](OC(C)(C)C)C(=O)O)c(N2CCc3ccccc3C2)c1-c1ccc(OCCc2ccc(F)cc2)cc1 [Example 10, (S)-2-(tert-Butoxy)-2-(4-(3,4-dihydroisoquinolin-2(1H)-yl)-5-(4-(4-fluorophenethoxy)phenyl)-2,6-dimethylpyridin-3-yl)acetic acid] | < 0.1 µM
3 | Cc1nc(C)c([C@H](OC(C)(C)C)C(=O)O)c(N2CCCC3(CCCC3)C2)c1-c1ccc(OCCc2ccc(F)cc2)cc1 [Example 18, (S)-2-(tert-Butoxy)-2-(5-(4-(4-fluorophenethoxy)phenyl)-2,6-dimethyl-4-(7-azaspiro[4.5]decan-7-yl)pyridin-3-yl)acetic acid] | 0.1 to 1 µM
4 | Cc1nc(C)c([C@H](OC(C)(C)C)C(=O)O)c(N2CCC3(CCCCC3)C2)c1-c1ccc(C(=O)NCc2ccccc2)cc1 [Example 63, (S)-2-(5-(4-(Benzylcarbamoyl)phenyl)-2,6-dimethyl-4-(2-azaspiro[4.5]decan-2-yl)pyridin-3-yl)-2-(tert-butoxy)acetic acid] | < 0.1 µM
5 | Cc1nc(CO)c(-c2ccc(OCCc3ccc(F)cc3)cc2)c(N2CCC3(CCC3)CC2)c1[C@H](OC(C)(C)C)C(=O)O [Example 38, (S)-2-(tert-Butoxy)-2-(5-(4-(4-fluorophenethoxy)phenyl)-6-(hydroxymethyl)-2-methyl-4-(7-azaspiro[3.5]nonan-7-yl)pyridin-3-yl)acetic acid] | < 0.1 µM
6 | Cc1nc(C)c([C@H](OC(C)(C)C)C(=O)O)c(N2CCC3(CCC3)CC2)c1-c1ccc2c(c1)CCN(Cc1ccccc1F)C2 [Example 33, (S)-2-(tert-Butoxy)-2-(5-(2-(2-fluorobenzyl)-1,2,3,4-tetrahydroisoquinolin-6-yl)-2,6-dimethyl-4-(7-azaspiro[3.5]nonan-7-yl)pyridin-3-yl)acetic acid] | < 0.1 µM
7 | Cc1nc(CNCC2CCCCC2)c(-c2ccc(OCCc3ccc(F)cc3)cc2)c(N2CCC3(CCC3)CC2)c1[C@H](OC(C)(C)C)C(=O)O [Example 56, (S)-2-(tert-Butoxy)-2-(6-(((cyclohexylmethyl)amino)methyl)-5-(4-(4-fluorophenethoxy)phenyl)-2-methyl-4-(7-azaspiro[3.5]nonan-7-yl)pyridin-3-yl)acetic acid] | < 0.1 µM
8 | Cc1nc(C)c([C@H](OC(C)(C)C)C(=O)O)c(N2CCC3(CCCC3)CC2)c1-c1ccc(C(=O)NCc2ccccc2)c(F)c1 [Example 24, (S)-2-(5-(4-(Benzylcarbamoyl)-3-fluorophenyl)-2,6-dimethyl-4-(8-azaspiro[4.5]decan-8-yl)pyridin-3-yl)-2-(tert-butoxy)acetic acid] | < 0.1 µM
9 | Cc1nc(C)c([C@H](OC(C)(C)C)C(=O)O)c(N2CC[C@H]3CCCC[C@H]3C2)c1-c1ccc(C(=O)NCc2ccccc2)cc1 [Example 11, (S)-2-(5-(4-(Benzylcarbamoyl)phenyl)-2,6-dimethyl-4-((4aR,8aR)-octahydroisoquinolin-2(1H)-yl)pyridin-3-yl)-2-(tert-butoxy)acetic acid] | < 0.1 µM
10 | Cc1nc(C)c([C@H](OC(C)(C)C)C(=O)O)c(N2CC[C@H]3CCCC[C@@H]3C2)c1-c1ccc(OCCc2ccc(F)cc2)cc1 [Example 12, (S)-2-(tert-Butoxy)-2-(5-(4-(4-fluorophenethoxy)phenyl)-2,6-dimethyl-4-((4aR,8aS)-octahydroisoquinolin-2(H)-yl)pyridin-3-yl)acetic acid] | < 0.1 µM
11 | Cc1nc(C)c([C@H](OC(C)(C)C)C(=O)O)c(N2CCC3(CCCO3)CC2)c1-c1ccc(OCCc2ccc(F)cc2)cc1 [Example 66, (S)-2-(tert-Butoxy)-2-(5-(4-(4-fluorophenethoxy)phenyl)-2,6-dimethyl-4-(1-oxa-8-azaspiro[4.5]decan-8-yl)pyridin-3-yl)acetic acid] | < 0.1 µM
12 | Cc1nc(C)c([C@H](OC(C)(C)C)C(=O)O)c(N2CCC3(CCC3)CC2)c1-c1ccc(OCC(C)(C)c2ccc(F)cc2)cc1 [Example 28, (S)-2-(tert-butoxy)-2-(5-(4-(2-(4-fluorophenyl)-2-methylpropoxy)phenyl)-2,6-dimethyl-4-(7-azaspiro[3.5]nonan-7-yl)pyridin-3-yl)acetic acid] | < 0.1 µM
13 | Cc1nc(C)c([C@H](OC(C)(C)C)C(=O)O)c(N2CCC3(CCCC3)CC2)c1-c1ccc(OCC(C)(C)c2ccc(F)cc2)cc1 [Example 22, (S)-2-(tert-Butoxy)-2-(5-(4-(2-(4-fluorophenyl)-2-methylpropoxy)phenyl)-2,6-dimethyl-4-(8-azaspiro[4.5]decan-8-yl)pyridin-3-yl)acetic acid] | < 0.1 µM
14 | Cc1nc(COCC2CCOCC2)c(-c2ccc(OCCc3ccc(F)cc3)cc2)c(N2CCC3(CCC3)CC2)c1[C@H](OC(C)(C)C)C(=O)O [Example 51, (S)-2-(tert-Butoxy)-2-(5-(4-(4-fluorophenethoxy)phenyl)-2-methyl-4-(7-azaspiro[3.5]nonan-7-yl)-6-(((tetrahydro-2H-pyran-4-yl)methoxy)methyl)pyridin-3-yl)acetic acid] | < 0.1 µM
15 | Cc1nc(C)c([C@H](OC(C)(C)C)C(=O)O)c(N2CCC3(CCCCC3)CC2)c1-c1ccc(C(=O)NCc2ccccc2)cc1 [Example 61, (S)-2-(5-(4-(Benzylcarbamoyl)phenyl)-2,6-dimethyl-4-(3-azaspiro[5.5]undecan-3-yl)pyridin-3-yl)-2-(tert-butoxy)acetic acid] | < 0.1 µM
16 | COCCNCc1nc(C)c([C@H](OC(C)(C)C)C(=O)O)c(N2CCC3(CCC3)CC2)c1-c1ccc(OCCc2ccc(F)cc2)cc1 [Example 42, (S)-2-(tert-Butoxy)-2-(5-(4-(4-fluorophenethoxy)phenyl)-6-(((2-methoxyethyl)amino)methyl)-2-methyl-4-(7-azaspiro[3.5]nonan-7-yl)pyridin-3-yl)acetic acid] | < 0.1 µM
17 | Cc1nc(C)c([C@H](OC(C)(C)C)C(=O)O)c(N2CCC3(CCCC3)C2)c1-c1ccc(C(=O)NCc2ccccc2)cc1 [Example 15, (S)-2-(5-(4-(Benzylcarbamoyl)phenyl)-2,6-dimethyl-4-(2-azaspiro[4.4]nonan-2-yl)pyridin-3-yl)-2-(tert-butoxy)acetic acid] | < 0.1 µM
18 | Cc1nc(C)c([C@H](OC(C)(C)C)C(=O)O)c(N2CC3CC3C2)c1-c1ccc(OCCc2ccc(F)cc2)cc1 (stereo partly drawn) [Example 6, (2S)-2-(4-(3-Azabicyclo[3.1.0]hexan-3-yl)-5-(4-(4-fluorophenethoxy)phenyl)-2,6-dimethylpyridin-3-yl)-2-(tert-butoxy)acetic acid] | 0.1 to 1 µM
19 | CCOCc1nc(C)c([C@H](OC(C)(C)C)C(=O)O)c(N2CCC3(CCC3)CC2)c1-c1ccc(OCCc2ccc(F)cc2)cc1 [Example 41, (S)-2-(tert-Butoxy)-2-(6-(ethoxymethyl)-5-(4-(4-fluorophenethoxy)phenyl)-2-methyl-4-(7-azaspiro[3.5]nonan-7-yl)pyridin-3-yl)acetic acid] | < 0.1 µM
20 | Cc1nc(C)c([C@H](OC(C)(C)C)C(=O)O)c(N2CCC3(CCCCCC3)C2)c1-c1ccc(OCCc2ccc(F)cc2)cc1 [Example 64, (S)-2-(tert-Butoxy)-2-(5-(4-(4-fluorophenethoxy)phenyl)-2,6-dimethyl-4-(2-azaspiro[4.6]undecan-2-yl)pyridin-3-yl)acetic acid] | < 0.1 µM
21 | Cc1nc(CN2CCOCC2)c(-c2ccc(OCCc3ccc(F)cc3)cc2)c(N2CCC3(CCC3)CC2)c1[C@H](OC(C)(C)C)C(=O)O [Example 54, (S)-2-(tert-Butoxy)-2-(5-(4-(4-fluorophenethoxy)phenyl)-2-methyl-6-(morpholinomethyl)-4-(7-azaspiro[3.5]nonan-7-yl)pyridin-3-yl)acetic acid] | < 0.1 µM
22 | Cc1nc(C)c([C@H](OC(C)(C)C)C(=O)O)c(N2CCC3(CCC3)CC2)c1-c1ccc(C(=O)NCc2ccccc2)c(F)c1 [Example 31, (S)-2-(5-(4-(Benzylcarbamoyl)-3-fluorophenyl)-2,6-dimethyl-4-(7-azaspiro[3.5]nonan-7-yl)pyridin-3-yl)-2-(tert-butoxy)acetic acid] | < 0.1 µM

Same assay, conditions: Human immunodeficiency virus 1, MT2, 120 h, read-out: EC50 μM

Row | Compound | EC50
23 | Cc1nc(C)c([C@H](OC(C)(C)C)C(=O)O)c(N2CCCC3(CCCC3)C2)c1-c1ccc(OCCc2ccc(F)cc2)cc1 [Example 18, (S)-2-(tert-Butoxy)-2-(5-(4-(4-fluorophenethoxy)phenyl)-2,6-dimethyl-4-(7-azaspiro[4.5]decan-7-yl)pyridin-3-yl)acetic acid] | 0.475 µM
24 | Cc1nc(C)c([C@H](OC(C)(C)C)C(=O)O)c(N2CCC3(CCCC3)CC2)c1-c1ccc(OCC(C)(C)c2ccc(F)cc2)cc1 [Example 22, (S)-2-(tert-Butoxy)-2-(5-(4-(2-(4-fluorophenyl)-2-methylpropoxy)phenyl)-2,6-dimethyl-4-(8-azaspiro[4.5]decan-8-yl)pyridin-3-yl)acetic acid] | 0.026 µM
25 | Cc1nc(C)c([C@H](OC(C)(C)C)C(=O)O)c(N2CCc3ccccc3C2)c1-c1ccc(OCCc2ccc(F)cc2)cc1 [Example 2, (S)-2-(tert-Butoxy)-2-(4-(3,4-dihydroisoquinolin-2(1H)-yl)-5-(4-(4-fluorophenethoxy)phenyl)-2,6-dimethylpyridin-3-yl)acetic acid] | 0.036 µM
26 | COCCNCc1nc(C)c([C@H](OC(C)(C)C)C(=O)O)c(N2CCC3(CCC3)CC2)c1-c1ccc(OCCc2ccc(F)cc2)cc1 [Example 42, (S)-2-(tert-Butoxy)-2-(5-(4-(4-fluorophenethoxy)phenyl)-6-(((2-methoxyethyl)amino)methyl)-2-methyl-4-(7-azaspiro[3.5]nonan-7-yl)pyridin-3-yl)acetic acid] | 0.002 µM
